The assay concerns the target rat MCH-1 (Rattus norvegicus, UniProt P97639). The assay is described as follows: Radioligand binding assay at cloned rat MCH1 receptor ([3H] Compound A). Set-up: host or cells: Peak rapid 293 (Peakr293) cells, transient calcium phosphate transfection, membranes. As to conditions: cloned rat MCH1 receptor, 0.08 nM [3H] Compound A, read-out: Ki (nM) rMCH1.

Like-named read-outs stand apart in the source and are kept apart here.

Chain of rat MCH-1 (P97639 whole entry): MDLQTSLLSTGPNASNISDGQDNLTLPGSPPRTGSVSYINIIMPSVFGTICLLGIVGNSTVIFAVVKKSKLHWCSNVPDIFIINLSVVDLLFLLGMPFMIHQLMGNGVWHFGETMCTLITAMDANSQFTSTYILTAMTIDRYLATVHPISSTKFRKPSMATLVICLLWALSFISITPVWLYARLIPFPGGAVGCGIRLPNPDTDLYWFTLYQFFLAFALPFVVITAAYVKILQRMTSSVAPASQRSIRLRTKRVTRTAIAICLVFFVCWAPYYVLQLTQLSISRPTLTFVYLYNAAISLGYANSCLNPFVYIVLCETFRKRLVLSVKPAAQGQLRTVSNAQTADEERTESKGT

With `Cc1onc(-c2c(F)cccc2Cl)c1C(=O)OC(CCCN1CCC(c2cccc(NC(=O)C(C)C)c2)CC1)c1ccccc1` (centres unmarked) [Example 295, 4-{4-[3-(ISOBUTYRYLAMINO)PHENYL]-1-PIPERIDINYL}-1-PHENYLBUTYL 3-(2-CHLORO-6-FLUOROPHENYL)-5-METHYL-4-ISOXAZOLECARBOXYLATE], the Ki (membranes from Peakr293 cells) was determined as 8.7 nM.
With `Cc1nn(-c2ccccc2)c(Cl)c1CN1CCC(c2cccc(NC(=O)C(C)C)c2)CC1` [Example 202], the inhibitory constant (Ki) (membranes from Peakr293 cells) is 155 nM.
Take `CC(C)C(=O)Nc1cccc(C2CCN(C[C@H](C)COc3cccc(F)c3)CC2)c1` [Example 360]: the inhibition constant Ki (membranes from Peakr293 cells) was 163 nM.
`COc1ccc(-n2cc(CN3CCC(c4cccc(NC(=O)C(C)C)c4)CC3)c3ccccc32)cc1` [Example 443]: the Ki (Peakr293 cell membranes) stood at 23.4 nM.
Same read-out and setting: with `Cc1ccc2[nH]c(-c3ccccc3I)c(CCCN3CCC(c4cccc(NC(=O)C(C)C)c4)CC3)c2c1` [Example 787] the figure was 21.6 nM.
With `CC(C)C(=O)Nc1cccc(C2CCN(CCCCNC(=O)Nc3cc(Cl)cc(Cl)c3)CC2)c1` [Example 659], the Ki (Peakr293 cell membranes) was 40.2 nM.
For `CC(C)C(=O)Nc1ccc(C2CCN(CCCCCn3ccc4ccccc43)CC2)cc1` [Example 825], under “Peakr293 cell membranes”, the inhibition constant (Ki) was 601 nM.
For the compound `CC(C)C(=O)Nc1cccc(C2CCN(CCCCNC(=O)c3cc(Cl)cc(Cl)c3)CC2)c1` [Example 655], where the note is “Peakr293 cell membranes”, the Ki came out at 31.1 nM.
Take `CC(C)C(=O)Nc1cccc(C2CCN(CCCOc3cccc(Br)c3)CC2)c1` [Example 351]: where the note is “membranes from Peakr293 cells”, the Ki was 61.8 nM.
The same measure, in the same setting: with `CC(C)C(=O)Nc1cccc(C2CCN(CCCOc3ccc(F)cc3)CC2)c1` [Example 347] the figure was 54.8 nM; with `CC(C)C(=O)Nc1cccc(C2CCN(Cc3ccc(-n4ccnc4)cc3)CC2)c1` [Example 256], 321 nM.
Still for that read-out and setting: with `CC(=O)c1cccc(OCCCN2CCC(c3cccc(NC(=O)C(C)C)c3)CC2)c1` [Example 341] the figure was 256 nM.
Regarding `COc1ccc2[nH]c(-c3ccc([N+](=O)[O-])cc3)c(CCCN3CCC(c4cccc(NC(=O)C(C)C)c4)CC3)c2c1` [Example 774], the Ki (Peakr293 cell membranes) amounted to 7.9 nM.
With `CC(C)C(=O)Nc1cccc(C2CCN(CCCCCC(O)c3ccccc3F)CC2)c1` (centres unmarked) [Example 809], the inhibitory constant (Ki) (Peakr293 cell membranes) came to 56.8 nM.
As for `CC(=O)c1cccc(OC(CCN2CCC(c3cccc(NC(=O)C(C)C)c3)CC2)c2ccc(F)cc2)c1` (centres unmarked) [Example 176], the Ki (membranes from Peakr293 cells) was 11.8 nM.
In the case of `CC(C)C(=O)Nc1cccc(C2CCN(CCCCCCNC(=O)c3ccc(Oc4cc(Cl)cc(Cl)c4)o3)CC2)c1` [Example 626], the Ki (Peakr293 cell membranes) is 20.9 nM.
On the same count and under the same terms, with `CC(C)C(=O)Nc1cccc(C2CCN(Cc3c[nH]c4cc(-c5ccccc5F)ccc34)CC2)c1` [Example 525] the figure was 91.4 nM.
For `CC(C)C(=O)Nc1cccc(C2CCN(Cc3ccc(Oc4ccccc4)nc3)CC2)c1` [Example 224], the Ki (membranes from Peakr293 cells) came out at 48 nM.
`Cc1ccc(C(=O)CCCN2CCC(c3cccc(NC(=O)C4CC4)c3)CC2)cc1` [Example 547]: for the setting “Peakr293 cell membranes”, the inhibitory constant (Ki) worked out at 75.5 nM.
On to `CCC(=O)Nc1ccc(C2CCN(CCCc3c(-c4ccccc4)n(-c4ccccc4)c4ccccc34)CC2)cc1` [Example 798], for which, for the setting “Peakr293 cell membranes”, the Ki was determined as 475 nM.
For `CC(=O)c1cccc(O[C@@H](CCN2CCC(c3cccc(N(C)C(=O)C(C)C)c3)CC2)c2ccccc2)c1` [Example 355], the Ki (membranes from Peakr293 cells) is 117 nM.
On to `CC(C)C(=O)Nc1cccc(C2CCN(CCCn3ccc4ccccc43)CC2)c1` [Example 844], for which, for the setting “Peakr293 cell membranes”, the inhibition constant (Ki) stood at 37.8 nM.
Take `COc1ccccc1C(=O)N[C@@H](CCN1CCC(c2cccc(NC(=O)C(C)C)c2)CC1)c1ccccc1` [Example 310]: under “membranes from Peakr293 cells”, the Ki was 152 nM.
For `CC(C)C(=O)Nc1cccc(C2CCN(CCCCC(Oc3cc(C(F)(F)F)ccc3F)c3ccc(Cl)cc3)CC2)c1` (centres unmarked) [Example 934], the Ki (Peakr293 cell membranes) came out at 12.3 nM.
In the case of `CC(=O)c1cccc(OCCCCCN2CCC(c3cccc(NC(=O)C(C)C)c3)CC2)c1` [Example 381], the Ki (membranes from Peakr293 cells) amounted to 235 nM.
Consider `CC(C)C(=O)Nc1cccc(C2CCN(C[C@H](C)COc3cccc(Br)c3)CC2)c1` [Example 364], for which the Ki (membranes from Peakr293 cells) was 144 nM.
For `CC(C)C(=O)Nc1cccc(C2CCN(C[C@H](C)COc3cc(F)c(F)cc3F)CC2)c1` [Example 357], under “membranes from Peakr293 cells”, the Ki stood at 115 nM.
Regarding `CC(C)C(=O)Nc1cccc(C2CCN(CCCNS(=O)(=O)c3ccccc3F)CC2)c1` [Example 643], the Ki (Peakr293 cell membranes) was 130 nM.
For the compound `CC(C)C(=O)Nc1cccc(C2CCN(CCCCCCNC(=O)Nc3cccc4ccccc34)CC2)c1` [Example 634], the Ki (Peakr293 cell membranes) worked out at 116 nM.
As for `CC(C)C(=O)Nc1cccc(C2CCN(Cc3c[nH]c(-c4ccccc4)n3)CC2)c1` [Example 203], the Ki (membranes from Peakr293 cells) stood at 79.6 nM.
Take `CC(C)C(=O)Nc1cccc(C2CCN(CCC(=O)c3ccccc3)CC2)c1` [Example 121]: the inhibition constant (Ki) (membranes from Peakr293 cells) came to 184 nM.
Consider `CC(C)C(=O)Nc1cccc(C2CCN(CCCCC(O)c3ccccc3F)CC2)c1` (centres unmarked) [Example 814], for which the Ki (Peakr293 cell membranes) is 159 nM.
Take `CC(C)C(=O)Nc1cccc(C2CCN(CCCNC(=O)Nc3ccc(Oc4ccccc4)cc3)CC2)c1` [Example 621]: the Ki (Peakr293 cell membranes) amounted to 205 nM.
On the same count and under the same terms, with `CC(C)C(=O)Nc1cccc(C2CCN(CCCCCC(Oc3cc(C(F)(F)F)ccc3F)c3ccccc3)CC2)c1` (centres unmarked) [Example 916] the figure was 20.2 nM.
On the same count and under the same terms, the same measure for `CC(C)C(=O)Nc1cccc(C2CCN(CCCCC(Oc3ccc(Br)cc3)c3ccccc3)CC2)c1` (centres unmarked) [Example 924]: 13.1 nM; for `CC(C)C(=O)Nc1cccc(C2CCN(Cc3c[nH]c4cc(F)ccc34)CC2)c1` [Example 470]: 654 nM; for `Cc1ccc2[nH]c(-c3ccc(F)cc3)c(CCCN3CCC(c4cccc(NC(=O)C(C)C)c4)CC3)c2c1` [Example 718]: 3.4 nM.
Still for that read-out and setting: the same measure for `COc1cccc(-n2ccc3cc(CN4CCC(c5cccc(NC(=O)C(C)C)c5)CC4)ccc32)c1` [Example 839]: 62.2 nM; for `CC(C)C(=O)Nc1cccc(C2CCN(CCCCCNC(=O)C(c3ccccc3)c3ccccc3)CC2)c1` [Example 654]: 43.6 nM; for `Cc1cccc2c(CCCN3CCC(c4cccc(NC(=O)C(C)C)c4)CC3)c(-c3ccccc3I)[nH]c12` [Example 793]: 16.3 nM.
As to `CC(C)C(=O)Nc1cccc(C2CCN(Cc3cn(-c4ccccc4F)c4cc(Cl)ccc34)CC2)c1` [Example 474], the Ki (Peakr293 cell membranes) was 13.3 nM.
On to `CC(C)C(=O)Nc1cccc(C2CCN(Cc3c[nH]c4ccc(C#N)cc34)CC2)c1` [Example 436], for which the Ki (Peakr293 cell membranes) amounted to 434 nM.
`CC(C)C(=O)Nc1cccc(C2CCN(CCCc3cn(C)c4ccccc34)CC2)c1` [Example 414]: for the setting “Peakr293 cell membranes”, the Ki was determined as 2.9 nM.
For the compound `CCc1ccc(-c2cccc3c(CN4CCC(c5cccc(NC(=O)C(C)C)c5)CC4)c[nH]c23)cc1` [Example 518], the Ki (Peakr293 cell membranes) came to 226 nM.
For `Cc1ccc2[nH]c(-c3ccc([N+](=O)[O-])cc3)c(CCCN3CCC(c4cccc(NC(=O)C(C)C)c4)CC3)c2c1` [Example 776], the Ki (Peakr293 cell membranes) stood at 18.2 nM.
Consider `CC(C)C(=O)Nc1cccc(C2CCN(CC[C@H](NC(=O)c3ccccn3)c3ccccc3)CC2)c1` [Example 309], for which the Ki (membranes from Peakr293 cells) was 310 nM.
Turning to `CC(C)C(=O)Nc1cccc(C2CCN(CC[C@H](NC(=O)c3cccs3)c3ccccc3)CC2)c1` [Example 323], the Ki (membranes from Peakr293 cells) was found to be 37 nM.
`COc1ccc(C(CCN2CCC(c3cccc(NC(=O)C(C)C)c3)CC2)Oc2ccc(Cl)cc2)cc1` (centres unmarked) [Example 178]: the Ki (membranes from Peakr293 cells) stood at 119 nM.
Take `CC(C)C(=O)Nc1cccc(C2CCN(CCCc3c(-c4ccccc4Br)[nH]c4ccccc34)CC2)c1` [Example 775]: the Ki (Peakr293 cell membranes) was 4.9 nM.
Take `CC(C)C(=O)Nc1cccc(C2CCN(Cc3ccc4c(ccn4-c4cccc5ccccc45)c3)CC2)c1` [Example 853]: the inhibitory constant (Ki) (Peakr293 cell membranes) is 48 nM.
Still for that read-out and setting: the same measure for `CC(C)C(=O)Nc1cccc(C2CCN(CCCc3c(-c4ccccc4F)n(C)c4ccccc34)CC2)c1` [Example 709]: 1.3 nM.
For the compound `CC(C)C(=O)Nc1cccc(C2CCN(CCC(Oc3ccccc3)c3ccc(F)cc3)CC2)c1` (centres unmarked) [Example 174], the Ki (membranes from Peakr293 cells) was determined as 17 nM.
Turning to `CC(C)C(=O)Nc1cccc(C2CCN(Cc3ccc(-c4cc(C(F)(F)F)nn4C)s3)CC2)c1` [Example 226], the Ki (membranes from Peakr293 cells) was 239 nM.
For `Cc1cc(CN2CCC(c3cccc(NC(=O)C(C)C)c3)CC2)cc2c3ccccc3n(C)c12` [Example 822], the Ki (Peakr293 cell membranes) stood at 1 nM.
With `CC(C)C(=O)Nc1cccc(C2CCN(CCC(=O)c3ccc(F)cc3)CC2)c1` [Example 123], the Ki (membranes from Peakr293 cells) was 450 nM.
For the compound `CC(C)C(=O)Nc1cccc(C2CCN(CCC(Oc3ccc(F)cc3)c3ccc4c(c3)CCC4)CC2)c1` (centres unmarked) [Example 162], the Ki (membranes from Peakr293 cells) is 7.2 nM.
On to `CC(C)C(=O)Nc1cccc(C2CCN(CC[C@H](NS(=O)(=O)c3cc(Cl)cc(Cl)c3O)c3ccccc3)CC2)c1` [Example 596], for which the Ki (Peakr293 cell membranes) is 597 nM.
Regarding `CC(C)C(=O)Nc1cccc(C2CCN(Cc3cccc4c3ccn4-c3ccccc3F)CC2)c1` [Example 871], where the note is “Peakr293 cell membranes”, the Ki stood at 252 nM.
For `CCCc1nn(-c2ccccc2)cc1C(=O)N[C@@H](CCN1CCC(c2cccc(NC(=O)C(C)C)c2)CC1)c1ccccc1` [Example 321], the inhibition constant Ki (membranes from Peakr293 cells) is 50.9 nM.
With `Cc1c(CN2CCC(c3cccc(NC(=O)C(C)C)c3)CC2)c(=O)n(-c2ccccc2)n1C` [Example 228], the inhibitory constant (Ki) (membranes from Peakr293 cells) was found to be 841 nM.
`CC(C)C(=O)Nc1cccc(C2CCN(CCCCCCNC(=O)C(c3ccccc3)c3ccccc3)CC2)c1` [Example 625]: the Ki (Peakr293 cell membranes) came out at 29.5 nM.
As to `Cc1onc(-c2c(Cl)cccc2Cl)c1C(=O)OCCCCN1CCC(c2cccc(NC(=O)C(C)C)c2)CC1` [Example 294, 4-{4-[3-(ISOBUTYRYLAMINO)PHENYL]-1-PIPERIDINYL}BUTYL 3-(2,6-DICHLOROPHENYL)-5-METHYL-4-ISOXAZOLECARBOXYLATE], the Ki (membranes from Peakr293 cells) is 15.8 nM.
On to `CC(C)C(=O)Nc1cccc(C2CCN(Cc3cccc4c3ccn4-c3cccnc3)CC2)c1` [Example 873], for which, under “Peakr293 cell membranes”, the Ki came to 345 nM.
In the case of `CC(C)c1ccc(C(=O)CCCN2CCC(c3cccc(NC(=O)C4CC4)c3)CC2)cc1` [Example 537], under “Peakr293 cell membranes”, the Ki amounted to 67.7 nM.
On to `CCC(=O)Nc1cccc(C2CCN(CCCC(=O)c3ccc(C)c(C)c3)CC2)c1` [Example 543], for which, under “Peakr293 cell membranes”, the Ki was 27.6 nM.

As a reminder, the Ki is a measure of affinity in units of concentration, obtained from inhibition or displacement.
